Where no end group is shown, it is not given here.
Key:
[1] = biological target: BRD4 BD2 domain (Homo sapiens, UniProt O60885); test: Binding affinity to BRD4 BD2
Excerpt: (§1) BRD4 is a member of the bromodomain and extraterminal (BET) protein family, containing two conserved bromodomains (BD). The BD is a high-affinity binding pocket for BRD4 binding to acetylated Lys residues on histones and transcription factors critical for histone acetyltransferase (HAT) activity. Small molecule BRD4 inhibitors that interact with the BRD4 BD inhibit BRD4 function by displacing BRD4 from genome binding sites, disrupting coactivator binding, and inhibiting its atypical HAT activity. A major limitation of pharmacological approaches to modifying BRD4 is that available inhibitors have poor selectivity for BRD isoforms. A third generation BRD4 inhibitor (BRD4i) with high selectivity for the BRD4 BD1 domain has been identified. This compound, ZL0591, binds with approximately 100 nM affinity to BRD4 BD1, but has 10× lower affinity for the BRD4 BD2 domain, and similarly has low affinity for BRD3.

[2] = biological target: BRD3 (Homo sapiens, UniProt Q15059); test: Binding affinity to BRD3
Sequence of BRD3 (Q15059 whole entry, species assumed): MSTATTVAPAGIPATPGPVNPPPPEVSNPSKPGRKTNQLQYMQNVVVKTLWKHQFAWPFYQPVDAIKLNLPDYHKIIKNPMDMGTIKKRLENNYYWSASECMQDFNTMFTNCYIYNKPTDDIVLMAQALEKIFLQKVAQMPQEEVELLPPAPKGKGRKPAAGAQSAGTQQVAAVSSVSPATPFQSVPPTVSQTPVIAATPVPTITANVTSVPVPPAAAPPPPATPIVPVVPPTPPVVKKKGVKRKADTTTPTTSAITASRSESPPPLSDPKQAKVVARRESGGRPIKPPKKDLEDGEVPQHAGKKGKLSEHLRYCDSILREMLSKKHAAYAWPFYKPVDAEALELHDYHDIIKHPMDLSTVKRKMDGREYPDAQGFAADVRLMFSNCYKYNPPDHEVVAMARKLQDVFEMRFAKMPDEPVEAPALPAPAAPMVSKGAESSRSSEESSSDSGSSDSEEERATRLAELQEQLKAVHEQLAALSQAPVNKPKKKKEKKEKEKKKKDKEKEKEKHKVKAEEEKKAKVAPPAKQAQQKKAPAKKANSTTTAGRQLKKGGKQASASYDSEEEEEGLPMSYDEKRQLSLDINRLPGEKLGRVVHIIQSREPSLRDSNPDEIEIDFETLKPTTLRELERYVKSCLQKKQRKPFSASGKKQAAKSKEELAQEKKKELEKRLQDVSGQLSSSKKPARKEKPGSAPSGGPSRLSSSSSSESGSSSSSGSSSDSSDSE
Excerpt: as §1

[3] = Intravenous half-life; type: in vivo
[4] = biological target: BRD4 BD1 (Homo sapiens, UniProt O60885); test: Binding affinity to BRD4 BD1
Excerpt: as §1

[5] = tested on: Bleomycin-induced fibrosis; test: Bleomycin-induced pulmonary fibrosis, therapeutic dosing; type: in vivo, mice
[6] = tested on: 7860 cells; test: Binding to high PD-L1 expressing cells; type: cell-based; settings: fluorescence
Excerpt: (§2) (SEQ ID NO: 5), optimized from the literature.

[7] = tested on: MCF-7 cells; test: Binding to cells with low PD-L1 expression; type: cell-based
Excerpt: as §2

[8] = biological target: PD-L1 (Homo sapiens, UniProt Q9NZQ7); settings: SPR
Sequence of PD-L1 (Q9NZQ7 19-290): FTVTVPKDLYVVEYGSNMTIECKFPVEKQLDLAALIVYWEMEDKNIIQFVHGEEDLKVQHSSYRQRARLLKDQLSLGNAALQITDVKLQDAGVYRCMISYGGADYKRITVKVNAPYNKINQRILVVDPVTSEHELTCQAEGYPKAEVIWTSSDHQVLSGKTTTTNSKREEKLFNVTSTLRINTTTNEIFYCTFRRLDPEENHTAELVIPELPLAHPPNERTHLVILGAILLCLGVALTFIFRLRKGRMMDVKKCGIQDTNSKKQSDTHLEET

[9] = Drug loading and encapsulation efficiency of PCL14K-DMs; type: physicochemical; settings: initial loading 20% wt, Dialysis
[10] = Hydrophobicity (log P) of BRD4 inhibitors; type: physicochemical
[11] = tested on: TGFβ-induced NOX4/SM22α/FN1 expression; test: TGFβ-induced myofibroblast transition, Q-RT-PCR of NOX4, SM22α and FN1; type: cell-based
[12] = tested on: fibroblast contractility; type: cell-based; settings: TGFβ-induced
[13] = tested on: BRD isoforms; type: binding; settings: data not shown
[14] = tested on: idiopathic pulmonary fibrosis; settings: IPF patients; cited from earlier work

## O=C(Nc1ccc(C(F)(F)F)cc1)Nc1ccc(S(=O)(=O)N2CCC[C@H]2CN2CCC(O)CC2)cc1 [ZL0591]
[1]
  Lower affinity for BRD4 BD2 domain relative to BD1: 10 ×
[2]
  Affinity for BRD3: low affinity
[3]
  Intravenous T1/2: 11.8 h
[4]
  Kd: ~100 nM
[5]; 10 mg/kg/dose systemic (IP), started 14 d after bleomycin, 14 d of treatment
  Pulmonary collagen content (hydroxyproline in total lung homogenates): significantly reduced
[5]; bleomycin- and BRD4 inhibitor-treated vs controls
  Blood oxygen saturation: increase
[5]; fixed lung sections
  Alveolar consolidation and fibrotic pattern (Massons Trichrome): substantially reduced
[5]; scored by independent pathologist
  Modified Ashcroft indices: reduction in Ashcroft indices was statistically significant
[5]; vs bleomycin treated only
  Lung density by microCT: reduction

## G7-pPD1: PD-L1-binding peptide pPD-1 conjugated to G7 PAMAM dendrimers (HVVWHRESPSGQTDTLAA; also: conjugated to G7 PAMAM dendrimers, site not given here)
[6]
  Binding to PD-L1 expressing cells: selective binding
[6]; listed as dendrimer-pPD-1
  Binding to PD-L1 expressing cells: specific interaction
[7]
  Interaction with low PD-L1 expression cells: lack of observed interactions
[8]
  KD compared with full antibody (aPD-L1): comparable

## COc1cc(OC)c2c(=O)cc(-c3cc(C)c(OC[C@H](O)CN4CCN(C)CC4)c(C)c3)oc2c1 [ZL0516]
[9]
  Drug Loading %: 0.70 ± 0.17%
  Encapsulation Efficiency %: 2.52 ± 0.17%
[10]
  log P: 2.89

## Cc1sc2c(c1C)C(c1ccc(Cl)cc1)=N[C@@H](CC(=O)OC(C)(C)C)c1nnc(C)n1-2 [JQ1]
[11]
  FN1 expression: effectively blocked
  NOX4 expression: effectively blocked
  SM22α expression: effectively blocked
[12]
  Contractility (retraction of collagen plugs): effectively inhibited
[13]
  Discrimination between BRD isoforms: no discrimination

## COC(=O)c1ccc2c(c1)NC(=O)/C2=C(\Nc1ccc(N(C)C(=O)CN2CCN(C)CC2)cc1)c1ccccc1 [Nintedanib, nintedanib]
[14]
  Decrease/loss of forced vital capacity (FVC): efficacy was shown

## Cc1ccc(=O)n(-c2ccccc2)c1 [pirfenidone]
[14]
  Decrease/loss of forced vital capacity (FVC): slows
  Progression-free survival: improves

— US12527741B2, “Modular dendron micelles for treatment of pulmonary diseases related to fibrosis and viral infection including COVID-19” (priority 2021, dated 2026)
